The record followed here is article PMC8187479, “Sugar phosphate activation of the stress sensor eIF2B” (Nature Communications, 2021).

For the assay, the target named is T1, eIF2Bα (Homo sapiens, UniProt Q14232).
T1 construct: made in house; host or cells: E. coli BL21(DE3)
T1 sequence (Q14232 1-305): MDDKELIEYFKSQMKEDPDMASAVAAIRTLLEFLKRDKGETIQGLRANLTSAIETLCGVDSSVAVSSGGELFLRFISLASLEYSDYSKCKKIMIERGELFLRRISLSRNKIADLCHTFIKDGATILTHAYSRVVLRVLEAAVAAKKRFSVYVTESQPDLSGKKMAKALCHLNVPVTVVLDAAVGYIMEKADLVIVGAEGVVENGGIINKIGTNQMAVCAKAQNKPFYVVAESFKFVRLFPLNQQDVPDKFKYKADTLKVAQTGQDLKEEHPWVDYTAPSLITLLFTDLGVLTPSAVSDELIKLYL
As to the kind of experiment: MIDAS (mass spectrometry integrated with equilibrium dialysis) metabolite binding screen. The protocol:
Metabolites were combined into four defined screening pools. […] To the reverse side, 300 μL of 50 μM per metabolite pool was aliquoted and sealed (metabolite chamber). Loaded dialysis plates were placed in the dark at 4 °C on a rotating shaker (120 rpm) and incubated for 40 h. Post-dialysis, metabolites were isolated from each chamber by cold methanol extraction. Each sample was analyzed in technical triplicate by FIA-MS on a SCIEX X500R QTOF MS with interspersed blanks injections. The input metabolite pools were assayed at the beginning, middle, and end of each MS method batch for QC and normalization.
MIDAS FIA-MS spectra were processed in SCIEX OS 1.6 software to determine metabolite abundances by integrating the mean area under the curve for each extracted ion chromatogram. For each dialysis replicate, log2(fold change) for each metabolite was calculated as the difference between the log2 abundance in the protein chamber and metabolite chamber. For each technical triplicate, up to one outlier was removed using a z-score cutoff of five (<0.1% of observations). The corrected technical replicates were collapsed to one mean fold-change summary per protein-metabolite pair. To remove fold-change variation that was not specific to a given metabolite-protein pair, the first three principal components of the total screening dataset were removed on a per metabolite pool basis by subtracting the projection of the first 3 principal components, creating log2(corrected fold change). Protein-metabolite z-scores were determined by comparing the target protein-metabolite log2(corrected fold change) to a no-signal model for that metabolite using measures of the central tendency (median) and standard deviation (extrapolated from the 25–75% quantiles), which are robust to the signals in the tails of a metabolite’s fold-change distribution. Z-scores were false-discovery rate controlled using Storey’s q-value (qvalue, R) and protein-metabolite interactions with q-values < 0.1 were considered significant.
(In general: In equilibrium dialysis free small molecules cross a membrane that holds back macromolecules.)

The mark [1] stands for this setting: MIDAS metabolite binding screen with eIF2Bα, sheet "eIF2Ba".
Where [2] appears, read: MIDAS screen, sheet eIF2Ba, metabolites screened in pools 1-4, p-value and q-value given.

As to `NCCS(=O)(=O)O` [Taurine], under setting [1], the “log2(corrected fold change)” value is given as -0.01154. Regarding `Nc1ccccc1C(=O)C[C@H](N)C(=O)O` [L-Kynurenine], under setting [2], the “log2(corrected fold change)” value is 0.1418.

Take `O=P(O)(O)OC1O[C@H](CO)[C@@H](O)[C@H](O)[C@@H]1O` (some centres unmarked) [Mannose 1-phosphate]: the “log2(corrected fold change)” value under setting [2] is listed as -0.1344. For `O=C(O)CCO` [3-Hydroxypropionic acid], the “log2(corrected fold change)” value under setting [1] was -0.02892. For the molecule `NCCCCCN` [Cadaverine], under setting [2], the “log2(corrected fold change)” value was found to be 0.2219.

For the molecule `CC(O)(CC(=O)O)C(=O)O` (centres unmarked) [Citramalate], under setting [1], the “log2(corrected fold change)” value was -0.0058. On to `NC(N)=O` [Urea], for which the “log2(corrected fold change)” value under setting [2] was -0.06736. For `Nc1nc(=O)c2nc(CNc3ccc(C(=O)N[C@@H](CCC(=O)O)C(=O)O)cc3)cnc2[nH]1` [Folic acid], the “log2(corrected fold change)” value under setting [1] is on record as -0.02054. Turning to `COc1ccc2[nH]cc(CC(=O)O)c2c1` [5-Methoxy-3-indoleacetic acid], the “log2(corrected fold change)” value under setting [2] is given as -0.03075. Still for that read-out and setting: to `CCC(O)C(=O)O` (centres unmarked) [2-Hydroxybutanoic acid] belongs 0.07137. Turning to `O=C(O)[C@@H](O)[C@@H](O)[C@H](O)[C@@H](O)C(=O)O` [D-Saccharic acid], the “log2(corrected fold change)” value under setting [1] was -0.01904. As for `CN(C)c1ncnc2nc[nH]c12` [Dimethylaminopurine], the “log2(corrected fold change)” value under setting [2] is recorded as -0.08009. As for `Nc1nc2c(ncn2[C@@H]2O[C@H](COP(=O)(O)OP(=O)(O)OP(=O)(O)O)[C@@H](O)[C@H]2O)c(=O)[nH]1` [Guanosine 5-triphosphate], the “log2(corrected fold change)” value under setting [2] is recorded as 0.3966. With `NC(=O)C1=CN([C@@H]2O[C@H](COP(=O)(O)OP(=O)(O)OC[C@H]3O[C@@H](n4cnc5c(N)ncnc54)[C@H](OP(=O)(O)O)[C@@H]3O)[C@@H](O)[C@H]2O)C=CC1` [NADPH], the “log2(corrected fold change)” value under setting [2] was -0.8133. The same measure, in the same setting: next, `CC[C@H](N)C(=O)O` [L-2-Aminobutyric acid]: -0.1029. Still for that read-out and setting: to `NCCS(=O)O` [Hypotaurine] belongs 0.03998; to Phosphatidylcholine, -0.03855. As to `O=C(CO)N[C@H]1[C@H]([C@H](O)[C@H](O)CO)OC(O)(C(=O)O)C[C@@H]1O` (some centres unmarked) [N-Glycolylneuraminic acid], under setting [1], the “log2(corrected fold change)” value is listed as -0.02217. Consider `O=C(O)c1ccc(O)cc1` [4-Hydroxybenzoic acid], for which, under setting [2], the “log2(corrected fold change)” value worked out at 0.1295.

Consider `CC(=O)N[C@H]1C(O)O[C@H](CO)[C@H](O)[C@@H]1O` (stereo partly drawn) [N-Acetyl-D-galactosamine], for which the “log2(corrected fold change)” value under setting [2] was determined as 0.3673. With `CC(=O)NCC(=O)O` [Acetylamino-acetic acid], the “log2(corrected fold change)” value under setting [1] amounted to 0.03921. `C[C@H](O)[C@@H](O)[C@@H](O)[C@H](O)C(=O)O` [6-Deoxy-L-galactonic acid]: under setting [1], the “log2(corrected fold change)” value was -0.02256. `O=P(O)(O)OC[C@H](O)CO` [D-Glycerol 1-phosphate]: the “log2(corrected fold change)” value under setting [2] was determined as 0.1183. With `N[C@@H](CS)C(=O)O` [L-Cysteine], the “log2(corrected fold change)” value under setting [2] is given as -0.1221. Turning to `Nc1nc2c(ncn2[C@@H]2O[C@H](CO)[C@@H](O)[C@H]2O)c(=O)[nH]1` [Guanosine], under setting [1], the “log2(corrected fold change)” value was found to be 0.01196. As to `Nc1ncnc2c1ncn2[C@@H]1O[C@H](COP(=O)(O)OP(=O)(O)OP(=O)(O)OC[C@@H]2O[C@H](n3cnc4c(N)ncnc43)[C@@H](O)[C@H]2O)[C@@H](O)[C@H]1O` [Diadenosine triphosphate], the “log2(corrected fold change)” value under setting [2] is given as -0.1669.

As for `N[C@@H](C[C@@H](O)C(=O)O)C(=O)O` [(4R)-4-Hydroxy-L-glutamic acid], the “log2(corrected fold change)” value under setting [1] is reported as -0.03114. Regarding `CC(CCC(=O)O)C(=O)O` (centres unmarked) [2-Methylglutaric acid], the “log2(corrected fold change)” value under setting [2] is on record as -0.09665. On to `O=c1[nH]cnc2c1ncn2[C@@H]1O[C@H](CO)[C@@H](O)[C@H]1O` [Inosine], for which the “log2(corrected fold change)” value under setting [2] is on record as 0.3045.

In the case of `Nc1c(O)cccc1C(=O)CC(N)C(=O)O` (racemic) [3-Hydroxy-DL-kynurenine], the “log2(corrected fold change)” value under setting [1] stood at 0.08675. On the same count and under the same terms, next, `COc1cc(CC(=O)O)ccc1O` [Homovanillic acid]: -0.006498; `Nc1ccn([C@H]2C[C@H](O)[C@@H](COP(=O)(O)OP(=O)(O)OP(=O)(O)O)O2)c(=O)n1` [Deoxycytidine triphosphate]: -0.0001501. On to `O=C(O)[C@H]1O[C@H](OP(=O)(O)OP(=O)(O)OC[C@H]2O[C@@H](n3ccc(=O)[nH]c3=O)[C@H](O)[C@@H]2O)[C@H](O)[C@@H](O)[C@@H]1O` [UDP-Glucuronate], for which the “log2(corrected fold change)” value under setting [2] was -0.09562. The same measure, in the same setting: to PIP3 belongs 0.2943; to `CC(C)(COP(=O)(O)OP(=O)(O)OC[C@H]1O[C@@H](n2cnc3c(N)ncnc32)[C@H](O)[C@@H]1OP(=O)(O)O)[C@H](O)C(=O)NCCC(=O)NCCSC(=O)CCC(=O)O` [Succinyl coenzyme A], 0.1384. For `CC(=O)N[C@@H](CC(=O)O)C(=O)O` [N-Acetyl-L-aspartate], under setting [1], the “log2(corrected fold change)” value is on record as 0.003577. In the case of `O=C(O)CC[C@H](O)C(=O)O` [L-Hydroxyglutaric acid], the “log2(corrected fold change)” value under setting [1] is -0.0058. For `Cc1cn([C@H]2C[C@H](O)[C@@H](COP(=O)(O)OP(=O)(O)OP(=O)(O)O)O2)c(=O)[nH]c1=O` [Thymidine 5-triphosphate], the “log2(corrected fold change)” value under setting [2] is listed as 0.01939. Same read-out and setting: to `O=C(O)Cc1cc(O)ccc1O` [Homogentisic acid] belongs -0.08584; to `Nc1c(C(=O)O)c2nc3c(C(=O)O)cccc3oc-2cc1=O` [Cinnabarinic Acid], -0.1918.

For the molecule `O=C[C@H](O)[C@@H](O)[C@H](O)CO` [D-Xylose], the “log2(corrected fold change)” value under setting [2] is recorded as -0.1354. In the case of `Cn1cnc(C[C@H](N)C(=O)O)c1` [1-Methyl-L-histidine], under setting [2], the “log2(corrected fold change)” value was -0.1945.

On to `NC(=O)CCC(N)C(=O)O` (stereo in doubt) [D-Glutamine], for which the “log2(corrected fold change)” value under setting [2] was 0.1976. Regarding `CNC[C@H](O)c1ccc(O)c(O)c1` [Epinephrine], the “log2(corrected fold change)” value under setting [1] is on record as -0.04113. Take Cytidine monophosphate: the “log2(corrected fold change)” value under setting [2] is on record as 1.354. Same read-out and setting: to `NCCOP(=O)(O)O` [O-Phosphorylethanolamine] belongs 0.1876.

Regarding `C[N+](C)(C)CCOP(=O)(O)O` [Phosphocholine], the “log2(corrected fold change)” value under setting [2] is -0.0156.

As for `C[C@H](O)CC(=O)O` [(S)-3-Hydroxybutyric acid], the “log2(corrected fold change)” value under setting [2] came to 0.07137.

Consider `Cc1c[nH]c(=O)[nH]c1=O` [Thymine], for which, under setting [2], the “log2(corrected fold change)” value is on record as -0.1153.

In the case of `CCCC(=O)SCCNC(=O)CCNC(=O)[C@H](O)C(C)(C)COP(=O)(O)OP(=O)(O)OC[C@H]1O[C@@H](n2cnc3c(N)ncnc32)[C@H](O)[C@@H]1OP(=O)(O)O` [Butyryl coenzyme A], the “log2(corrected fold change)” value under setting [1] was 0.07019. For `Nc1nc2c(ncn2[C@H]2C[C@H](O)[C@@H](CO)O2)c(=O)[nH]1` [2-Deoxyguanosine], the “log2(corrected fold change)” value under setting [2] is -0.1329. As for `CC(C(=O)O)C(=O)O` [Methylmalonic acid], the “log2(corrected fold change)” value under setting [1] is given as -0.05121.

For the molecule `O=C(O)C(=O)CO` [Hydroxypyruvate], the “log2(corrected fold change)” value under setting [1] is -0.04906.

Regarding `CC(C)CC(=O)SCCNC(=O)CCNC(=O)[C@H](O)C(C)(C)COP(=O)(O)OP(=O)(O)OC[C@H]1O[C@@H](n2cnc3c(N)ncnc32)[C@H](O)[C@@H]1OP(=O)(O)O` [Isovaleryl coenzyme A], the “log2(corrected fold change)” value under setting [1] worked out at 0.1853. For `O=C(O)C(=O)CC(O)C(=O)O` (centres unmarked) [4-Hydroxy-2-oxoglutaric acid], under setting [2], the “log2(corrected fold change)” value is listed as -0.1985. With `OC[C@H]1O[C@@H](O[C@H]2[C@H](O)[C@@H](O)[C@H](O)O[C@@H]2CO)[C@H](O)[C@@H](O)[C@H]1O` [D-Lactose], the “log2(corrected fold change)” value under setting [1] was -0.002139.

For `O=C(O)CC(=O)C(=O)O` [Oxaloacetic acid], the “log2(corrected fold change)” value under setting [2] came to 0.1095. As to `O=C(O)[C@@H](O)[C@H](O)[C@H](O)[C@@H](O)C(=O)O` [D-galactaric acid], under setting [1], the “log2(corrected fold change)” value amounted to 0.01388. On to `Nc1ncnc2c1ncn2[C@@H]1O[C@H](CSCC[C@H](N)C(=O)O)[C@@H](O)[C@H]1O` [S-(5-Adenosyl)-L-homocysteine], for which the “log2(corrected fold change)” value under setting [2] was -0.01949.
